Results: ChEMBL document CHEMBL3045943, “Novel N-aryl(alkaryl)-2-[(3-R-2-oxo-2H-[1,2,4]triazino[2,3-c]quinazoline-6-yl)thio]acetamides: synthesis, cytotoxicity, anticancer activity, COMPARE analysis and docking” (2013)

Columns and labels:
Assay type in all cases: functional
[1] = test system: Photobacterium leiognathi; assay: Growth inhibition of Photobacterium leiognathi Sh1 assessed as bio-luminescence at 0.1 mg/ml after 16 to 18 hr by chronic action test relative to control; parameters: scale not given: the % may be the effect or the level left
[2] = test system: NCI-H522; assay: Cytotoxicity against Homo sapiens (human) NCI-H522 cells assessed as cell growth at 10 uM after 48 hr by SRB assay relative to control; conditions: NCI-H522, 48 h, read-out: Activity
[3] = test system: Photobacterium leiognathi; assay: Growth inhibition of Photobacterium leiognathi Sh1 assessed as bio-luminescence at 0.1 mg/ml after 10 min by acute action test relative to control; parameters: scale not given: the % may be the effect or the level left
[4] = test system: Photobacterium leiognathi; assay: Growth inhibition of Photobacterium leiognathi Sh1 assessed as bio-luminescence at 0.25 mg/ml after 16 to 18 hr by chronic action test relative to control; parameters: scale not given: the % may be the effect or the level left
[5] = test system: Photobacterium leiognathi; assay: Growth inhibition of Photobacterium leiognathi Sh1 assessed as bio-luminescence at 0.25 mg/ml after 10 min by acute action test relative to control; parameters: scale not given: the % may be the effect or the level left
[6] = test system: Photobacterium leiognathi; assay: Growth inhibition of Photobacterium leiognathi Sh1 assessed as bio-luminescence at 0.025 mg/ml after 16 to 18 hr by chronic action test relative to control; parameters: scale not given: the % may be the effect or the level left
[7] = test system: MDA-MB-435; assay: Cytotoxicity against Homo sapiens (human) MDA-MB-435 cells assessed as cell growth at 10 uM after 48 hr by SRB assay relative to control; conditions: MDA-MB-435, 48 h, read-out: Activity
[8] = test system: Photobacterium leiognathi; assay: Growth inhibition of Photobacterium leiognathi Sh1 assessed as bio-luminescence at 0.025 mg/ml after 10 min by acute action test relative to control; parameters: scale not given: the % may be the effect or the level left
[9] = test system: SR; assay: Cytotoxicity against Homo sapiens (human) SR cells assessed as cell growth at 10 uM after 48 hr by SRB assay relative to control; conditions: read-out: Activity
[10] = test system: HCT-116; assay: Cytotoxicity against Homo sapiens (human) HCT116 cells assessed as cell growth at 10 uM after 48 hr by SRB assay relative to control; conditions: HCT-116, 48 h, read-out: Activity
[11] = test system: HOP-92; assay: Cytotoxicity against Homo sapiens (human) HOP92 cells assessed as cell growth at 10 uM after 48 hr by SRB assay relative to control; conditions: HOP-92, 48 h, read-out: Activity
[12] = test system: SF-539; assay: Cytotoxicity against Homo sapiens (human) SF539 cells assessed as cell growth at 10 uM after 48 hr by SRB assay relative to control; conditions: SF-539, 48 h, read-out: Activity
[13] = test system: LOX IMVI; assay: Cytotoxicity against Homo sapiens (human) LOXIMVI cells assessed as cell growth at 10 uM after 48 hr by SRB assay relative to control; conditions: read-out: Activity
[14] = test system: OVCAR-3; assay: Cytotoxicity against Homo sapiens (human) OVCAR3 cells assessed as cell growth at 10 uM after 48 hr by SRB assay relative to control; conditions: OVCAR-3, 48 h, read-out: Activity
[15] = test system: KM12; assay: Cytotoxicity against Homo sapiens (human) KM12 cells assessed as cell growth at 10 uM after 48 hr by SRB assay relative to control; conditions: KM12, 48 h, read-out: Activity
[16] = test system: SW-620; assay: Cytotoxicity against Homo sapiens (human) SW620 cells assessed as cell growth at 10 uM after 48 hr by SRB assay relative to control; conditions: SW-620, 48 h, read-out: Activity
[17] = test system: HL-60(TB); assay: Cytotoxicity against Homo sapiens (human) HL-60(TB) cells assessed as cell growth at 10 uM after 48 hr by SRB assay relative to control; conditions: HL-60, 48 h, read-out: Activity
[18] = test system: CCRF-CEM; assay: Cytotoxicity against Homo sapiens (human) CCRF-CEM cells assessed as cell growth at 10 uM after 48 hr by SRB assay relative to control; conditions: read-out: Activity
[19] = test system: HCT-15; assay: Cytotoxicity against Homo sapiens (human) HCT15 cells assessed as cell growth at 10 uM after 48 hr by SRB assay relative to control; conditions: HCT-15, 48 h, read-out: Activity
[20] = test system: MOLT-4; assay: Cytotoxicity against Homo sapiens (human) MOLT4 cells assessed as cell growth at 10 uM after 48 hr by SRB assay relative to control; conditions: MOLT-4, 48 h, read-out: Activity
[21] = test system: K562; assay: Cytotoxicity against Homo sapiens (human) K562 cells assessed as cell growth at 10 uM after 48 hr by SRB assay relative to control; conditions: K562, 48 h, read-out: Activity
[22] = test system: HT-29; assay: Cytotoxicity against Homo sapiens (human) HT-29 cells assessed as cell growth at 10 uM after 48 hr by SRB assay relative to control; conditions: HT-29, 48 h, read-out: Activity
[23] = Cytotoxicity against Homo sapiens (human) […] cells assessed as cell growth at 10 uM after 48 hr by SRB assay relative to control; conditions: read-out: Activity
[24] = test system: 786-0; assay: Cytotoxicity against Homo sapiens (human) 786-0 cells assessed as cell growth at 10 uM after 48 hr by SRB assay relative to control; conditions: 786-0, 48 h, read-out: Activity
[25] = test system: UO-31; assay: Cytotoxicity against Homo sapiens (human) UO31 cells after 48 hr by SRB assay; conditions: UO-31, 48 h
[26] = test system: HOP-62; assay: Cytotoxicity against Homo sapiens (human) HOP62 cells after 48 hr by SRB assay; conditions: HOP-62, 48 h
[27] = test system: PC-3; assay: Cytotoxicity against Homo sapiens (human) PC3 cells assessed as cell growth at 10 uM after 48 hr by SRB assay relative to control; conditions: PC-3, 48 h, read-out: Activity
[28] = test system: U-251; assay: Cytotoxicity against Homo sapiens (human) U251 cells assessed as cell growth at 10 uM after 48 hr by SRB assay relative to control; conditions: U-251, 48 h, read-out: Activity
[29] = test system: SNB-75; assay: Cytotoxicity against Homo sapiens (human) SNB75 cells after 48 hr by SRB assay; conditions: SNB-75, 48 h
[30] = test system: BT-549; assay: Cytotoxicity against Homo sapiens (human) BT549 cells after 48 hr by SRB assay; conditions: BT-549, 48 h
[31] = test system: NCI-H460; assay: Cytotoxicity against Homo sapiens (human) NCI-H460 cells assessed as cell growth at 10 uM after 48 hr by SRB assay relative to control; conditions: NCI-H460, 48 h, read-out: Activity
[32] = test system: DU-145; assay: Cytotoxicity against Homo sapiens (human) DU145 cells assessed as cell growth at 10 uM after 48 hr by SRB assay relative to control; conditions: DU-145, 48 h, read-out: Activity
[33] = test system: SF-268; assay: Cytotoxicity against Homo sapiens (human) SF268 cells assessed as cell growth at 10 uM after 48 hr by SRB assay relative to control; conditions: SF-268, 48 h, read-out: Activity
[34] = test system: A498; assay: Cytotoxicity against Homo sapiens (human) A498 cells after 48 hr by SRB assay; conditions: A498, 48 h
[35] = test system: A549; assay: Cytotoxicity against Homo sapiens (human) A549 cells assessed as cell growth at 10 uM after 48 hr by SRB assay relative to control; conditions: A549, 48 h, read-out: Activity
[36] = test system: SF-295; assay: Cytotoxicity against Homo sapiens (human) SF295 cells assessed as cell growth at 10 uM after 48 hr by SRB assay relative to control; conditions: SF-295, 48 h, read-out: Activity
[37] = test system: SNB-75; assay: Cytotoxicity against Homo sapiens (human) SNB75 cells assessed as cell growth at 10 uM after 48 hr by SRB assay relative to control; conditions: SNB-75, 48 h, read-out: Activity

SMILES: Cc1nn2c(SCC(=O)NCc3ccccc3Cl)nc3ccccc3c2nc1=O
- Activity [1]: 180.9%
- growth at 10 µM [2]: 79.9%
- Activity [3]: 110%
- Activity [4]: 125%
- Activity [5]: 142.9%
- Activity [6]: 148.9%
- growth at 10 µM [7]: 79.8%
- Activity [8]: 91.7%

SMILES: O=C(CSc1nc2ccccc2c2nc(=O)c(-c3ccccc3)nn12)NCc1ccccc1Cl
- Activity [1]: 133.3%
- growth at 10 µM [9]: 47.4%
- growth at 10 µM [2]: 43.2%
- Activity [3]: 80%
- growth at 10 µM [10]: 7.01%
- Activity [4]: 110%
- Activity [5]: 155%
- Activity [6]: 93%
- growth at 10 µM [11]: 44.8%
- growth at 10 µM [12]: 9.93%
- Activity [8]: 108.3%
- growth at 10 µM [13]: 27.9%
- growth at 10 µM [14]: 47.9%

SMILES: Cc1ccc(-c2nn3c(SCC(=O)Nc4cccc(C(F)(F)F)c4)nc4ccccc4c3nc2=O)cc1
- Activity [1]: 81.5%
- growth at 10 µM [9]: 66.5%
- Activity [3]: 78.8%
- Activity [4]: 200%
- Activity [5]: 83.3%
- Activity [6]: 118.2%
- growth at 10 µM [11]: 71%
- growth at 10 µM [12]: 80.8%
- Activity [8]: 61.1%

SMILES: COc1ccc(-c2nn3c(SCC(=O)Nc4ccccc4F)nc4ccccc4c3nc2=O)cc1
- growth at 10 µM [15]: 51.3%
- Activity [1]: 96.67%
- growth at 10 µM [16]: 65.6%
- growth at 10 µM [9]: 48.2%
- Activity [3]: 84%
- growth at 10 µM [17]: 67.9%
- growth at 10 µM [10]: 56.7%
- growth at 10 µM [18]: 67.5%
- Activity [4]: 100%
- growth at 10 µM [19]: 92.2%
- Activity [5]: 40%
- Activity [6]: 100%
- growth at 10 µM [20]: 52.7%
- growth at 10 µM [21]: 60.2%
- Activity [8]: 90%
- growth at 10 µM [22]: 67.8%
- growth at 10 µM [23]: 67.6%

SMILES: Cc1ccc(-c2nn3c(SCC(=O)Nc4ccccc4F)nc4ccccc4c3nc2=O)cc1
- Activity [1]: 87.5%
- growth at 10 µM [9]: 73.7%
- Activity [3]: 86.96%
- growth at 10 µM [17]: 84.4%
- growth at 10 µM [18]: 76.8%
- Activity [4]: 100%
- Activity [5]: 47.83%
- Activity [6]: 112.5%
- growth at 10 µM [20]: 82.3%
- growth at 10 µM [21]: 77.5%
- Activity [8]: 89.86%
- growth at 10 µM [23]: 94.4%

SMILES: O=C(CSc1nc2ccccc2c2nc(=O)c(-c3ccccc3)nn12)NCc1ccccc1
- growth at 10 µM [24]: -7.56%
- GI50 [25]: 2.57 µM
- LC50 [25]: > 100 µM
- TGI ([25]; read-out: pTGI): > 100 µM
- GI50 [26]: 2.75 µM
- LC50 [26]: 30.2 µM
- TGI ([26]; read-out: pTGI (converted)): 7.08 µM
- growth at 10 µM [27]: 18.1%
- growth at 10 µM [15]: 12%
- Activity [1]: 113.6%
- growth at 10 µM [16]: 19.4%
- growth at 10 µM [28]: 30.1%
- growth at 10 µM [9]: 41.9%
- Activity [3]: 112.5%
- growth at 10 µM [17]: 51.6%
- growth at 10 µM [10]: 48.6%
- GI50 [29]: 2.19 µM
- LC50 [29]: 43.7 µM
- TGI ([29]; read-out: pTGI (converted)): 13.5 µM
- GI50 [30]: 3.02 µM
- LC50 [30]: > 100 µM
- TGI ([30]; read-out: pTGI (converted)): 7.76 µM
- growth at 10 µM [18]: 37.9%
- Activity [4]: 78.2%
- Activity [5]: 100%
- Activity [6]: 84.9%
- growth at 10 µM [31]: 1.57%
- growth at 10 µM [7]: 21.7%
- growth at 10 µM [20]: 43%
- growth at 10 µM [11]: 24.6%
- growth at 10 µM [32]: 21.8%
- growth at 10 µM [33]: 53.1%
- growth at 10 µM [21]: 29.7%
- Activity [8]: 125%
- GI50 [34]: 0.0269 µM
- LC50 [34]: > 100 µM
- TGI ([34]; read-out: pTGI (converted)): 37.2 µM
- growth at 10 µM [35]: 12.8%
- growth at 10 µM [23]: 44.5%
- growth at 10 µM [36]: 55.7%
- growth at 10 µM [13]: 29.5%
- growth at 10 µM [14]: 13.7%

SMILES: Cc1ccc(-c2nn3c(SCC(=O)Nc4ccccc4C)nc4ccccc4c3nc2=O)cc1
- Activity [1]: 66.7%
- growth at 10 µM [28]: 63.5%
- Activity [3]: 109.7%
- growth at 10 µM [18]: -49.6%
- Activity [4]: 93.3%
- Activity [5]: 193.5%
- Activity [6]: 100%
- growth at 10 µM [37]: 46.7%
- Activity [8]: 119.7%

SMILES: COc1ccc(-c2nn3c(SCC(=O)Nc4ccccc4C(F)(F)F)nc4ccccc4c3nc2=O)cc1
- Activity [1]: 200%
- Activity [3]: 106.5%
- Activity [4]: 102.9%
- Activity [5]: 113.4%
- Activity [6]: 185.2%
- Activity [8]: 97.8%
- growth at 10 µM [23]: 85.1%
